These sequences were tested on G3BP1 NFT2. Conditions: library DMS-CoV; bait G3BP1 NFT2; prey N; peptide RNAPRITFGGPSDSTG; listed as aa = residue placed at this position; column sums to 1.
Format: binding, human

| Sequence | DMS PSSM value, N (position 2) | DMS PSSM value, P (position 11) | DMS PSSM value, G (position 10) | DMS PSSM value, T (position 7) | DMS PSSM value, T (position 15) | DMS PSSM value, I (position 6) | DMS PSSM value, G (position 9) | DMS PSSM value, D (position 13) | DMS PSSM value, A (position 3) | DMS PSSM value, P (position 4) |
| --- | --- | --- | --- | --- | --- | --- | --- | --- | --- | --- |
| RNAPRITFGGPSDSTG N2E (REAPRITFGGPSDSTG) | 0.4748 |  |  |  |  |  |  |  |  |  |
| RNAPRITFGGPSDSTG N2M (RMAPRITFGGPSDSTG) | 0 |  |  |  |  |  |  |  |  |  |
| RNAPRITFGGPSDSTG P11T (RNAPRITFGGTSDSTG) |  | 0 |  |  |  |  |  |  |  |  |
| RNAPRITFGGPSDSTG G10P (RNAPRITFGPPSDSTG) |  |  | 0 |  |  |  |  |  |  |  |
| RNAPRITFGGPSDSTG T7F (RNAPRIFFGGPSDSTG) |  |  |  | 0 |  |  |  |  |  |  |
| RNAPRITFGGPSDSTG T15P (RNAPRITFGGPSDSPG) |  |  |  |  | 0 |  |  |  |  |  |
| RNAPRITFGGPSDSTG I6L (RNAPRLTFGGPSDSTG) |  |  |  |  |  | 0.232 |  |  |  |  |
| RNAPRITFGGPSDSTG T15K (RNAPRITFGGPSDSKG) |  |  |  |  | 0 |  |  |  |  |  |
| RNAPRITFGGPSDSTG G9R (RNAPRITFRGPSDSTG) |  |  |  |  |  |  | 0 |  |  |  |
| RNAPRITFGGPSDSTG D13Q (RNAPRITFGGPSQSTG) |  |  |  |  |  |  |  | 0 |  |  |
| RNAPRITFGGPSDSTG A3L (RNLPRITFGGPSDSTG) |  |  |  |  |  |  |  |  | 0 |  |
| RNAPRITFGGPSDSTG A3I (RNIPRITFGGPSDSTG) |  |  |  |  |  |  |  |  | 0 |  |
| RNAPRITFGGPSDSTG T7D (RNAPRIDFGGPSDSTG) |  |  |  | 0 |  |  |  |  |  |  |
| RNAPRITFGGPSDSTG D13A (RNAPRITFGGPSASTG) |  |  |  |  |  |  |  | 0 |  |  |
| RNAPRITFGGPSDSTG D13S (RNAPRITFGGPSSSTG) |  |  |  |  |  |  |  | 0 |  |  |
| RNAPRITFGGPSDSTG P4Y (RNAYRITFGGPSDSTG) |  |  |  |  |  |  |  |  |  | 0 |
| RNAPRITFGGPSDSTG N2D (RDAPRITFGGPSDSTG) | 0.4666 |  |  |  |  |  |  |  |  |  |
| RNAPRITFGGPSDSTG G9S (RNAPRITFSGPSDSTG) |  |  |  |  |  |  | 0 |  |  |  |
| RNAPRITFGGPSDSTG G9A (RNAPRITFAGPSDSTG) |  |  |  |  |  |  | 0 |  |  |  |
| RNAPRITFGGPSDSTG I6V (RNAPRVTFGGPSDSTG) |  |  |  |  |  | 0.768 |  |  |  |  |
| RNAPRITFGGPSDSTG P4G (RNAGRITFGGPSDSTG) |  |  |  |  |  |  |  |  |  | 0 |

| Sequence | DMS PSSM value, N (position 2) | DMS PSSM value, P (position 11) | DMS PSSM value, G (position 10) | DMS PSSM value, T (position 7) | DMS PSSM value, T (position 15) | DMS PSSM value, I (position 6) | DMS PSSM value, G (position 9) | DMS PSSM value, D (position 13) | DMS PSSM value, A (position 3) | DMS PSSM value, P (position 4) |
| --- | --- | --- | --- | --- | --- | --- | --- | --- | --- | --- |
| RNAPRITFGGPSDSTG G9F (RNAPRITFFGPSDSTG) |  |  |  |  |  |  | 0 |  |  |  |
| RNAPRITFGGPSDSTG T15L (RNAPRITFGGPSDSLG) |  |  |  |  | 0 |  |  |  |  |  |
| RNAPRITFGGPSDSTG D13P (RNAPRITFGGPSPSTG) |  |  |  |  |  |  |  | 1 |  |  |
| RNAPRITFGGPSDSTG T7Q (RNAPRIQFGGPSDSTG) |  |  |  | 0 |  |  |  |  |  |  |
| RNAPRITFGGPSDSTG T7V (RNAPRIVFGGPSDSTG) |  |  |  | 0 |  |  |  |  |  |  |
| RNAPRITFGGPSDSTG P4E (RNAERITFGGPSDSTG) |  |  |  |  |  |  |  |  |  | 0.9115 |
| RNAPRITFGGPSDSTG P11Q (RNAPRITFGGQSDSTG) |  | 0 |  |  |  |  |  |  |  |  |
| RNAPRITFGGPSDSTG D13R (RNAPRITFGGPSRSTG) |  |  |  |  |  |  |  | 0 |  |  |
| RNAPRITFGGPSDSTG D13F (RNAPRITFGGPSFSTG) |  |  |  |  |  |  |  | 0 |  |  |
| RNAPRITFGGPSDSTG A3P (RNPPRITFGGPSDSTG) |  |  |  |  |  |  |  |  | 0 |  |
| RNAPRITFGGPSDSTG P11N (RNAPRITFGGNSDSTG) |  | 0 |  |  |  |  |  |  |  |  |
| RNAPRITFGGPSDSTG T15W (RNAPRITFGGPSDSWG) |  |  |  |  | 0 |  |  |  |  |  |
| RNAPRITFGGPSDSTG T15V (RNAPRITFGGPSDSVG) |  |  |  |  | 0 |  |  |  |  |  |
| RNAPRITFGGPSDSTG N2G (RGAPRITFGGPSDSTG) | 0 |  |  |  |  |  |  |  |  |  |
| RNAPRITFGGPSDSTG A3E (RNEPRITFGGPSDSTG) |  |  |  |  |  |  |  |  | 0.2371 |  |
| RNAPRITFGGPSDSTG P4S (RNASRITFGGPSDSTG) |  |  |  |  |  |  |  |  |  | 0 |
| RNAPRITFGGPSDSTG T7K (RNAPRIKFGGPSDSTG) |  |  |  | 0 |  |  |  |  |  |  |
| RNAPRITFGGPSDSTG I6W (RNAPRWTFGGPSDSTG) |  |  |  |  |  | 0 |  |  |  |  |
| RNAPRITFGGPSDSTG G9W (RNAPRITFWGPSDSTG) |  |  |  |  |  |  | 0 |  |  |  |
| RNAPRITFGGPSDSTG P11I (RNAPRITFGGISDSTG) |  | 0 |  |  |  |  |  |  |  |  |
| RNAPRITFGGPSDSTG P4F (RNAFRITFGGPSDSTG) |  |  |  |  |  |  |  |  |  | 0 |

Same assay, conditions: library DMS-CoV; bait G3BP1 NFT2; prey N; peptide RNAPRITFGGPSDSTG; listed as aa = residue placed at this position; column sums to 1

| Sequence | DMS PSSM value, S (position 12) | DMS PSSM value, R (position 5) | DMS PSSM value, S (position 14) | DMS PSSM value, G (position 16) |
| --- | --- | --- | --- | --- |
| RNAPRITFGGPSDSTG S12W (RNAPRITFGGPWDSTG) | 0 |  |  |  |
| RNAPRITFGGPSDSTG R5V (RNAPVITFGGPSDSTG) |  | 0.006458 |  |  |
| RNAPRITFGGPSDSTG R5W (RNAPWITFGGPSDSTG) |  | 0 |  |  |
| RNAPRITFGGPSDSTG S12A (RNAPRITFGGPADSTG) | 0.3916 |  |  |  |
| RNAPRITFGGPSDSTG S14Y (RNAPRITFGGPSDYTG) |  |  | 0 |  |
| RNAPRITFGGPSDSTG R5G (RNAPGITFGGPSDSTG) |  | 0 |  |  |
| RNAPRITFGGPSDSTG G16T (RNAPRITFGGPSDSTT) |  |  |  | 0 |
| RNAPRITFGGPSDSTG G16M (RNAPRITFGGPSDSTM) |  |  |  | 0 |
| RNAPRITFGGPSDSTG S12Y (RNAPRITFGGPYDSTG) | 0 |  |  |  |
| RNAPRITFGGPSDSTG S12M (RNAPRITFGGPMDSTG) | 0 |  |  |  |
